Assay results taken from the Deep4Chem optical property database.

Assay: solvent given as SMILES

SMILES: CCn1c2ccccc2c2cc(C#Cc3cc(C#Cc4ccc5c(c4)c4ccccc4n5CC)nc(S(C)(=O)=O)n3)ccc21
- emission maximum (in C1CCOC1): 496 nm
- emission maximum (in CCOC(C)=O): 491 nm
- emission maximum (in CN(C)C=O): 550 nm
- emission maximum (in Cc1ccccc1): 447 nm
- emission maximum (in ClCCl): 510 nm

SMILES: CCCCCC(=O)c1cccc2sc3c(c12)P(=O)(c1ccccc1)c1ccccc1-3 (centres undefined)
- emission maximum (in ClCCl): 427 nm

SMILES: N#C/C(=C\c1ccc(C=C(c2ccccc2)c2ccccc2)cc1)c1ccccc1
- emission maximum (in C1CCOC1): 468 nm

SMILES: O=C1c2ccccc2C2=Cc3ccc4ccccc4[n+]3[B-](F)(F)N12
- emission maximum (in CCO): 465 nm
- emission maximum (in Cc1ccccc1): 474 nm
- emission maximum (in ClCCl): 464 nm

SMILES: CCCC1(CCC)c2ccccc2-c2ccccc21
- emission maximum (in C1CCCCC1): 309 nm

SMILES: Cc1cc(/N=C/c2cc(S(=O)(=O)[O][Na])ccc2O)c(/N=C/c2cc(S(=O)(=O)[O][Na])ccc2O)cc1C
- emission maximum (in O): 426 nm

SMILES: N#Cc1nc(N(Cc2ccccc2)Cc2ccccc2)c(C#N)nc1N(Cc1ccccc1)Cc1ccccc1
- emission maximum (in ClC(Cl)Cl): 588 nm

SMILES: F[B-]1(F)n2c(c(-c3ccccc3)c(-c3ccccc3)c2-c2ccccc2)C(c2ccccc2)=C2C(c3ccccc3)=C(c3ccccc3)C(c3ccccc3)=[N+]21
- emission maximum (in C1CCOC1): 613 nm

SMILES: CC(C)[Si](C#Cc1c2nc3ccccc3nc2c(C#C[Si](C(C)C)(C(C)C)C(C)C)c2nc3c4ccccc4c(=O)c4ccccc4c3nc12)(C(C)C)C(C)C
- emission maximum (in ClCCl): 627 nm

SMILES: CCCCn1c(-c2ccc(-c3nnc(-c4cccs4)o3)cc2)nc2c3ccccc3c3ccccc3c21
- emission maximum (in ClCCl): 448 nm

SMILES: Cc1ccc(-n2c3ccccc3c3cc(C=C(C#N)C#N)ccc32)cc1
- emission maximum (in C1CCOC1): 454 nm
- emission maximum (in CC#N): 516 nm
- emission maximum (in CC(C)=O): 502 nm
- emission maximum (in CCOC(C)=O): 474 nm
- emission maximum (in CO): 519 nm
- emission maximum (in CS(C)=O): 524 nm
- emission maximum (in Cc1ccccc1): 454 nm
- emission maximum (in ClC(Cl)Cl): 478 nm

SMILES: CCCCCOc1cc2oc(=O)c3c4ccc(N(c5ccc(C)cc5)c5ccc(C)cc5)cc4c4ccc5cccc6c(c1)c2c3c4c56
- emission maximum (in C1CCOC1): 605 nm

SMILES: CN(C)c1ccc2cc(C(/C=C/c3cn(C)c4ccccc34)=C(C#N)C#N)c(=O)oc2c1
- emission maximum (in C1CCOC1): 584 nm
- emission maximum (in C1COCCO1): 568 nm
- emission maximum (in CN(C)C=O): 539 nm
- emission maximum (in CS(C)=O): 555 nm
- emission maximum (in ClCCl): 583 nm

SMILES: CC1(C)c2ccccc2N(c2ccc(-c3nc4cc(C#N)c(C#N)cc4nc3-c3ccc(N4c5ccccc5C(C)(C)c5ccccc54)cc3)cc2)c2ccccc21
- emission maximum (in Cc1ccccc1): 620 nm

SMILES: CC(C)(C)c1ccc2c(c1)c1cc(C(C)(C)C)ccc1n2-c1ccc(-c2ccc3c(c2)C2(c4cc(-c5ccc(-n6c7ccc(C(C)(C)C)cc7c7cc(C(C)(C)C)ccc76)cc5)ccc4-3)c3ccccc3S(=O)(=O)c3ccccc32)cc1
- emission maximum (in ClCCl): 449 nm
- emission maximum (in c1cc(-n2c3ccccc3c3ccccc32)cc(-n2c3ccccc3c3ccccc32)c1): 434 nm

SMILES: Cc1cc(C)c(B(c2c(C)cc(C)cc2C)c2cc3ccc4ccccc4c3c3c2ccc2ccccc23)c(C)c1
- emission maximum (in C1CCCCC1): 436 nm
- emission maximum (in C1CCOC1): 446 nm
- emission maximum (in CC#N): 449 nm
- emission maximum (in ClC(Cl)Cl): 443 nm
- emission maximum (in c1ccccc1): 444 nm

SMILES: N#Cc1c2nc3ccccn3c2nc2nc3ccccn3c12
- emission maximum (in C1CCCCC1): 485 nm
- emission maximum (in C1COCCO1): 505 nm
- emission maximum (in CC#N): 525 nm
- emission maximum (in CN(C)C=O): 540 nm
- emission maximum (in ClC(Cl)Cl): 510 nm

SMILES: CC1=CC(/C=C/c2ccc(OCCCN=[N+]=[N-])cc2)=[N+]2C1=C(c1ccc(N3CCCCC3)cc1)c1c(C)cc(C)n1[B-]2(F)F
- emission maximum (in CO): 586 nm

SMILES: COc1ccc2cc(/C=C/C3=[O+][B-](F)(F)OC(/C=C/c4ccc5cc(OC)ccc5c4)=C3c3ccccc3)ccc2c1
- emission maximum (in ClCCl): 600 nm

SMILES: O=S(=O)([O-])c1ccc([O-])c2ccccc12
- emission maximum (in O): 435 nm

SMILES: CC1(C)C(/C=C/C=C/C=C/C=C2\N(CCCCS(=O)(=O)[O-])c3ccc4ccccc4c3C2(C)C)=[N+](CCCCS(=O)(=O)[O-])c2ccc3ccccc3c21
- emission maximum (in O): 820 nm

SMILES: CC1=C(I)C(C)=[N+]2C1=C(c1c(-c3ccccn3)nc3ccccn13)c1c(C)cc(C)n1[B-]2(F)F
- emission maximum (in ClCCl): 558 nm

SMILES: COOCc1noc(-c2ccccc2)c1Br
- emission maximum (in C1CCCCC1): 345 nm
